Laboratory results: US20250241965A1, “METHOD TO IMPROVE CELL VIABILITY OF CARDIOMYOCYTES” (UNIVERSITY OF WASHINGTON, priority 2022, published 2025)

Assays:
[1] = tested on: pluripotent stem cells (PSCs) differentiating to cardiomyocytes; experiment: Cell yield during differentiation of pluripotent stem cells to cardiomyocytes in suspension culture; assay type: cell-based; conditions: for cell counts (cells/mL) during differentiation, FIG. 4: versus CBP conditions
Protocol: FIG. 1A depicts the timeline, base media, media supplements, small molecules for the differentiation of pluripotent stem cells to cardiomyocytes. Addition of CHIR, Wnt agonist, occurs at Day 3 of differentiation, while the Wnt antagonist Wiki, is added either 48 or 44 hours after CHIR addition. The timing from CHIR to WIKI addition is optimized for each cell line and/or reagent change to most efficiently induce cardiomyocye differentiation.
(§1) FIG. 3 (top) illustrates the current best practice (CBP) differentiation methodology including timeline, base media, media supplements and the addition of small molecules. FIG. 3 (bottom) the experimental set up to test three different methodologies designed to improve the cell yield in comparison to CBP (1). To improve the total cell yield, adding an additional media change on the day just prior to the initiation of significant cell loss (2), or the addition of ROCK inhibitor at the points of small molecule addition (CHIR or WIKI, respectively) were tested. To monitor for the fate of cells in the experiment, the cultures were monitored for cell counts (both in single cell suspension and in aggregates), glucose, lactate, and pH using a Blood Gas Analyzer (BGA); apoptosis was analyzed by AnnexinV staining; additionally, mesoderm formation was monitored by flow cytometry for CD56 and PDGFRa to determine if the addition of ROCK inhibitor changed the developmental trajectory of the cells.
FIG. 4 (top) once again illustrates the experimental design as described in […], for reference. FIG. 4 (bottom) indicates the cell counts at multiple time-points from each condition during the differentiation of experiment #19. 19-1 is CBP conditions, 19-2 is media change at day 6 conditions (including the addition of Wiki 5 uM), 19-3 is conditions that received ROCK inhibitor at the time of small molecule addition. At day 6 of differentiation cells numbers in condition 19-3 were elevated to the point of needing to double the media volume and therefore cells were split into 19-3A and 19-3B.
involves multiple steps of PSC expansion and differentiation to the desired lineage. As presented here PSCs are thawed from a suspension PSC bank (PMID: 26318718) and aggregated in suspension culture, with the addition of the ROCK inhibitor Y-27632, shown to permit survival of dissociated PSCs (PMID: 17529971). Following expansion, the cells are induced to differentiate to mesoderm and then cardiomyocytes by modulating Wnt signaling using CHIR99021 to induce mesoderm (PMID: 23257984), followed small molecule Wnt inhibitor, WIKI4 (PMID: 23227175) to specify mesoderm to the cardiomyocyte lineage (FIG. 3).
loss during the addition of CHIR99021 and WIKI4. […] Additionally, at differentiation day 13, the culture with the addition of Y-27632 yielded nearly 4× more cardiomyocytes than cultures without. Subsequently Y-27632 was added to all cultures during the differentiation (FIG. 4).

[2] = tested on: pluripotent stem cells (PSCs) differentiating to cardiomyocytes; experiment: Apoptosis by AnnexinV staining (flow cytometry) during cardiomyocyte differentiation; assay type: cell-based
Source text: as §1
FIG. 6 illustrates that apoptosis correlates with the cell loss detected in CBP conditions (19-1) and media change (including Wiki) conditions (19-2), in comparison to ROCK inhibitor conditions (19-3). This illustration also includes an additional experimental set which includes addition of ROCK inhibitor at time-points of small molecule addition (20-1), or CBP conditions (20-2). […]

SMILES | cell loss by end of culture, FIG. 1B ([1]; additional WIKI4 on day 6 of differentiation, 8 uM CHIR) | cell counts (cells/mL) during differentiation, FIG. 4 ([1]; condition 19-2: media change at day 6 including addition of Wiki 5 uM) | cells/mL in the final culture, FIG. 1B ([1]; media change with no additional WIKI4 on day 6, Day 20 of differentiation) | AnnexinV staining (apoptosis), FIG. 6 ([2]; condition 19-2: media change at day 6 including Wiki) | yield of pre-cardiomyocytes ([1]; Y-27632 added in combination with CHIR99021 and WIKI4, measured at day 6 of differentiation (4.7E5 cells/mL without)) [cells/mL] | cell counts (cells/mL) during differentiation, FIG. 4 ([1]; condition 19-3: ROCK inhibitor at the time of small molecule (CHIR, WIKI) addition) | cardiomyocyte yield relative to cultures without Y-27632 ([1]; differentiation day 13) [×] | yield of pre-cardiomyocytes relative to culture without Y-27632 ([1]; in combination with CHIR99021 and WIKI4, day 6 of differentiation) | AnnexinV staining (apoptosis), FIG. 6 ([2]; condition 19-3: ROCK inhibitor at time-points of small molecule addition)
COc1ccc(-n2c(SCCCN3C(=O)c4cccc5cccc(c45)C3=O)nnc2-c2ccncc2)cc1 [WIKI4] | extensive loss of cells | even more rapid loss of cells | roughly 8E5 cells/mL | high | – | – | – | – | –
C[C@@H](N)[C@H]1CC[C@H](C(=O)Nc2ccncc2)CC1 [Y-27632] | – | – | – | – | 1.1E6 | significantly higher cell numbers | ~4 | greater than double the yield | low
